Common to all, as to assay type: cell-based
Assay [1] relates to firefly luciferase. The assay can be described thus: Luciferase assay in stably transduced luciferase HEK-293T cells. Conditions: for wild type luciferase signal: HEK-293T cells expressing HA-luciferase, 100 μM, 4 h; for luciferase levels / activity, inhibitor alone: 100 μg/mL cycloheximide or 6 μM bortezomib. The method, then:
Firefly luciferase and firefly luciferase-eDHFR were cloned into pBABE-puro vector which was a gift from Hartmut Land & Jay Morgenstern & Bob Weinberg (Addgene plasmid #1764). pBABE-puro-luciferase was co-transfected with VSV-G into GP2-293 cells (Retro-X Universal Packaging System, Clonetech, Mountain View, Calif.) with TransIT-2020 (MirusBio) according to TransIT-2020's manufacture's protocol. After 48 h, viral supernatant was harvested, spun down, filtered with a […] syringe filter, and added to HEK-293T supplemented with 8 μg/mL polybrene. After 4 h of infection, the media was replaced with fresh media. 48 h later, media was replaced with media containing 3 μg/mL puromycin. Media was replaced with fresh media containing puromycin every 3-4 days. After 2 weeks of puromycin selection, the cells were grown out from single cell colonies and screened for luciferase expression.
Stably transduced luciferase HEK-293T cells were plated in 96-well plates 24 h prior to treatment with 100 μM of Cbz-B3A, amine-B3A, acetyl-B3A, and Cbz-acetyl. After 4 h, cells were harvested and measured with Luciferase Assay System with Reporter Lysis Buffer from Promega according to the manufacturer's protocol. Before the addition of luciferin, protein concentration was measured by removing 2 μl of lysate from each well and adding it to diluted Bio-Rad Protein Assay Dye Reagent Concentrate, and the absorbance was measured at OD595. The protein concentration was used to normalize luciferase signal. For translation assays, cells were pretreated for 15 min with 100 μg/mL cycloheximide or 6 μM bortezomib. For the recombinant luciferase assay, Quantilum Recombinant Luciferase (Promega) was diluted 1:250,000 in reporter lysis buffer with 1 mg/mL BSA then mixed 1:1 with 200 μM compound in the same buffer for a final dilution of 1:500,000 and 100 μM compound in 20 μL. This was incubated for 10 min at room temperature then measured with Luciferase Assay System with Reporter Lysis Buffer from Promega according to the manufacturer's protocol.

Assay [2] deals with 4EBP1 phosphorylation by mTORC1. The assay can be described thus: 4EBP1 phosphorylation immunoblot in HEK-293T cells. The protocol: (§1) Quantification of western blots was performed with ImageJ. Cells were lysed in RIPA buffer (1% NP-40, 1% NaDeoxycholate, 0.1% SDS, 10 mM TrisCl, 10 mM β-glycerophosphate, 10 mM Na pyrophosphate, 50 mM NaF, 200 μM Na vanadate, 1 mM EDTA, 500 μM EGTA, 1% benzonase, and supplemented with complete (Roche Diagnostics) protease inhibitors).
Background: Immunoblotting shows a protein as a band on a membrane.

The test system of assay [3] is firefly luciferase. Description: Luciferase assay in stably transduced luciferase HEK-293T cells. Conditions: HEK-293T luciferase-eDHFR and wild-type luciferase cells; 200 TMP-B3A (unit not given) vs DMSO.
For assay [4], the system named is protein translation in HEK-293T cells. Description: 35S-methionine/cysteine incorporation translation assay. Conditions: saturating concentration (Cbz-B3A 10 μM); 4 h treatment then 1 h labeling. The protocol:
80,000 cells/well of HEK-293T cells were plated into 24 well plates 24 h before the assay. Cells were treated with indicated concentration of compound for 4 h. After 4 h, the media was removed and replaced with DMEM without methionine and cysteine (Lifetechnologies) supplemented with 0.2 mCi/mL EXPRESS [^35S] protein labeling mix (PerkinElmer), 10% dialyzed FBS (Pierce), 1× glutaMax (Gibco), 100 U/mL penicillin 100 μg/mL streptomycin (Gibco), 1 mM sodium pyruvate (Lifetechnologies), and the indicated concentration of compound. After 1 h, this media was removed, cells were washed with ice cold PBS, and lysed with low deoxycholate RIPA buffer (10 mM Tris-Cl, 1% NP-40, 0.5% Na Deoxycholate, 0.1% SDS, 140 mM NaCl, 1 mM EDTA, 500 μM EGTA, 1× Roche Complete protease inhibitors, 1:100 Benzonase, and at pH 8.0). Lysate was centrifuged at maximum speed for 20 m at 4° C. The concentration was measured by Bradford assay. 10 μg of lysate was added to […] ice cold 1 mg/mL BSA with 0.02% Na Azide. 1 mL of ice cold 10% TCA was added, the solutions were mixed and incubated on ice for 0.5 h. These mixtures were vacuum filtered onto GF/C Whatman glass microfiber filters. The filters were washed with 2×5 mL of 10% TCA, then 2×3 mL ethanol. The filters were then dried for a 0.5 h. The filters were placed into scintillation vials with 5 mL of scintillation fluid and read on a scintillation counter.

In another assay the test system is eIF2α. The assay can be described thus: eIF2α phosphorylation immunoblot in HEK-293T cells. Conditions: 1 h; tunicamycin 5 μg/mL, thapsigargin 500 nM; compared with vehicle. The method, then:
as §1

As to `CC(C)(C)OC(=O)/N=C(\NCCC[C@H](NC(=O)OC(C)(C)C)C(=O)NCCCCCCN)NC(=O)OC(C)(C)C` [Amine-B3A], in the assay with firefly luciferase [1], the “wild type luciferase signal” value is listed as “decreased the wild type luciferase signal”.
With `CC(C)C[C@H](NC(=O)[C@H](Cc1ccccc1)NC(=O)c1cnccn1)B(O)O` [Bortezomib, reference compound], the “luciferase levels / activity, inhibitor alone” value with firefly luciferase [1] is listed as “decreased luciferase levels”.
`CC(=O)NCCCCCCNC(=O)OCc1ccccc1` [Cbz-acetyl]: the “wild type luciferase signal” value with firefly luciferase [1] is listed as “not reduced”. For the same compound, in assay [2] (Cbz-B3A 10 μM, Cbz-acetyl 10 μM, rapamycin 20 nM, 4 h), the “4EBP1 phosphorylation (hyper- vs hypo-phosphorylated band)” value is reported as “No shift”.
`CC(C)(C)OC(=O)/N=C(/NCCCC(NC(=O)OC(C)(C)C)C(=O)NCCCCNC(=O)OCc1ccccc1)NC(=O)OC(C)(C)C` (centres unmarked) [JX-8]: the “4EBP1 phosphorylation, comparison with Cbz-B3A” value in assay [2] (20 μM, 3 h, anti-4EBP1 western blot) was “more potent mTOR inhibitor than CB3A”.
With `COc1cc(Cc2cnc(N)nc2N)cc(OC)c1OCC(=O)NCCCCCCNC(=O)[C@H](CCCN/C(=N\C(=O)OC(C)(C)C)NC(=O)OC(C)(C)C)NC(=O)OC(C)(C)C` [TMP-B3A], the luciferase signal entry with firefly luciferase [3] was “reduced luciferase signal to similar levels in both luciferase-eDHFR and wild-type luciferase cells”.
With `CC(=O)NCCCCCCNC(=O)[C@H](CCCN/C(=N\C(=O)OC(C)(C)C)NC(=O)OC(C)(C)C)NC(=O)OC(C)(C)C` [acetyl-B3A], the “wild type luciferase signal” value in the assay with firefly luciferase [1] was “decreased the wild type luciferase signal”.
Consider `C[C@@H]1C[C@@H]([C@H](O)CC2CC(=O)NC(=O)C2)C(=O)[C@@H](C)C1` [cycloheximide, reference compound], for which, in the assay with firefly luciferase [1], the “luciferase levels / activity, inhibitor alone” value was “luciferase activity decreased”.
For `CO[C@H]1C[C@@H]2CC[C@@H](C)[C@@](O)(O2)C(=O)C(=O)N2CCCC[C@H]2C(=O)O[C@H]([C@H](C)C[C@@H]2CC[C@@H](O)[C@H](OC)C2)CC(=O)[C@H](C)/C=C(\C)[C@@H](O)[C@@H](OC)C(=O)[C@H](C)C[C@H](C)/C=C/C=C/C=C/1C` [rapamycin, reference compound], the “maximal inhibition of translation (35S-methionine/cysteine incorporation)” value in assay [4] is 35%.
`C/C=C(/C)C(=O)O[C@H]1C(C)=C2[C@H]([C@@H]1OC(=O)CCCCCCC)[C@@](C)(OC(C)=O)C[C@H](OC(=O)CCC)[C@@]1(O)[C@H]2OC(=O)[C@@]1(C)O` [thapsigargin]: the eIF2α phosphorylation entry with eIF2α is “increased phosphorylation of eIF2α”.
For tunicamycin, the eIF2α phosphorylation result in the assay on eIF2α is on record as “increased phosphorylation of eIF2α”.

(Values after patent US20180327364A1, “MTOR INHIBITORS AND METHODS OF USE THEREOF” (Brandeis University, priority 2015, published 2018).)
